Measured values from US6720331B2, “1-substituted 1,2,3,4-tetrahydro-β-carboline and 3,4-dihydro-β-carboline and analogs as antitumor agents” (National Sun Yat-sen University, priority 2001, dated 2004).
Values after ≈ are worked out from the molar mass of the structure shown. Like-named read-outs stand apart in the source and are kept apart here.

Experiments:
P-388 (murine leukemia) = experiment: Growth inhibition of tumor cell line P-388 (Table 1); format: cell-based; settings: for IC50: Mus musculus, P388, 72 h, read-out: IC50, concentration inhibiting 50% of the growth of P-388
[1] = system: KB-16 (human nasopharyngeal carcinoma); experiment: Growth inhibition of tumor cell line KB-16 (Table 1); format: cell-based; settings: for IC50: Homo sapiens, KB16, 72 h, read-out: IC50, concentration inhibiting 50% of the growth of KB-16
[2] = system: HT-29 (human colon adenocarcinoma); experiment: Growth inhibition of tumor cell line HT-29 (Table 1); format: cell-based; settings: for IC50: Homo sapiens, HT-29, 144 h, read-out: IC50, concentration inhibiting 50% of the growth of HT-29
[3] = system: A-549 (human lung adenocarcinoma); experiment: Growth inhibition of tumor cell line A-549 (Table 1); format: cell-based; settings: for IC50: Homo sapiens, A549, 144 h, read-out: IC50, concentration inhibiting 50% of the growth of A-549
murine P-388 cells = settings: Sakai et al., J Am Chem Soc 1986; cited from earlier work
[4] = 3 day drug exposure, columns A/B = scaffold type
[5] = 6 day drug exposure, columns A/B = scaffold type

IC50 (P-388 (murine leukemia); [4]) [µg/mL]	IC50 [1, 4] [µg/mL]	IC50 [2, 5] [µg/mL]	IC50 [3, 5] [µg/mL]	Compound	further results
2.8 (≈ 9.08 µM)	> 50	> 50	> 50	COc1ccc(C2NCCc3c2[nH]c2ccccc32)cc1OC (stereo not drawn) [Compound 10, 1-(3′,4′-Dimethoxyphenyl)-1,2,3,4-tetrahydro-β-carboline]	
				1-(3′-Nitro-4′-Benzo-1″,3″-dioxole)-3,4-dihydro-β-carboline [Compound 27]	IC50, concentration inhibiting 50% of the growth of P-388 (P-388 (murine leukemia); [4]): 0.3 µg/mL; IC50, concentration inhibiting 50% of the growth of KB-16 [1, 4]: 0.8 µg/mL; IC50, concentration inhibiting 50% of the growth of HT-29 [2, 5]: 1.0 µg/mL; IC50, concentration inhibiting 50% of the growth of A-549 [3, 5]: 0.6 µg/mL
< 0.001	< 0.001	< 0.001	< 0.001	CC(=O)O[C@H]1C(=O)[C@@]2(C)[C@H]([C@H](OC(=O)c3ccccc3)[C@]3(O)C[C@H](OC(=O)[C@H](O)[C@@H](NC(=O)c4ccccc4)c4ccccc4)C(C)=C1C3(C)C)[C@]1(OC(C)=O)CO[C@@H]1C[C@@H]2O [Compound 30, paclitaxel, reference compound]	
0.6 (≈ 1.95 µM)	0.7 (≈ 2.27 µM)	1.1 (≈ 3.57 µM)	1.1 (≈ 3.57 µM)	COc1ccc(C2NCCc3c2[nH]c2ccccc32)c(OC)c1 (stereo not drawn) [Compound 9, 1-(2′,4′-Dimethoxyphenyl)-1,2,3,4-tetrahydro-β-carboline]	
0.2 (≈ 0.649 µM)	1.4 (≈ 4.54 µM)	0.4 (≈ 1.3 µM)	0.6 (≈ 1.95 µM)	COc1cc(OC)cc(C2NCCc3c2[nH]c2ccccc32)c1 (stereo not drawn) [Compound 12, 1-(3′,5′-Dimethoxyphenyl)-1,2,3,4-tetrahydro-β-carboline]	
2.2 (≈ 7.55 µM)	1.7 (≈ 5.83 µM)	0.7 (≈ 2.4 µM)	1.6 (≈ 5.49 µM)	CN(C)c1ccc(C2NCCc3c2[nH]c2ccccc32)cc1 (stereo not drawn) [Compound 7, 1-(4′-Dimethylaminophenyl)-1,2,3,4-tetrahydro-β-carboline]	
				c1ccc2c(c1)Cc1cc(C3NCCc4c3[nH]c3ccccc43)ccc1-2 (stereo not drawn) [Compound 15, 1-(2′-Fluorenyl)-1,2,3,4-tetrahydro-β-carboline]	IC50, concentration inhibiting 50% of the growth of P-388 (P-388 (murine leukemia); [4]): 0.1 µg/mL; IC50, concentration inhibiting 50% of the growth of KB-16 [1, 4]: 0.4 µg/mL; IC50, concentration inhibiting 50% of the growth of HT-29 [2, 5]: 0.5 µg/mL; IC50, concentration inhibiting 50% of the growth of A-549 [3, 5]: 0.6 µg/mL
				1-(2′-Fluorenyl)-3,4-dihydro-β-carboline [Compound 28]	IC50, concentration inhibiting 50% of the growth of P-388 (P-388 (murine leukemia); [4]): 0.1 µg/mL; IC50, concentration inhibiting 50% of the growth of KB-16 [1, 4]: 1.4 µg/mL; IC50, concentration inhibiting 50% of the growth of HT-29 [2, 5]: 0.7 µg/mL; IC50, concentration inhibiting 50% of the growth of A-549 [3, 5]: 0.6 µg/mL
				CCn1c2ccccc2c2cc(C3NCCc4c3[nH]c3ccccc43)ccc21 (stereo not drawn) [Compound 16, 1-(9′-Ethyl-3′-carbazole)-1,2,3,4-tetrahydro-β-carboline]	IC50, concentration inhibiting 50% of the growth of P-388 (P-388 (murine leukemia); [4]): 0.7 µg/mL; IC50, concentration inhibiting 50% of the growth of KB-16 [1, 4]: 0.8 µg/mL; IC50, concentration inhibiting 50% of the growth of HT-29 [2, 5]: 0.5 µg/mL; IC50, concentration inhibiting 50% of the growth of A-549 [3, 5]: 0.8 µg/mL
				CCN(CC)c1ccc(C2NCCc3c2[nH]c2ccccc32)cc1 (stereo not drawn) [Compound 8, 1-(4′-N-Diethylaminophenyl)-1,2,3,4-tetrahydro-β-carboline]	IC50, concentration inhibiting 50% of the growth of P-388 (P-388 (murine leukemia); [4]): 0.07 µg/mL; IC50, concentration inhibiting 50% of the growth of KB-16 [1, 4]: 0.2 µg/mL; IC50, concentration inhibiting 50% of the growth of HT-29 [2, 5]: 1.1 µg/mL; IC50, concentration inhibiting 50% of the growth of A-549 [3, 5]: 1.1 µg/mL
				O[C@]12C=C(c3nccc4c3[nH]c3ccccc34)[C@@H]3CCN(CCCC/C=C\CC1)C[C@@]31C[C@@H]3/C=C\CCCCN3[C@@H]12 [Compound 3, manzamine A, reference compound]	IC50 (P-388 (murine leukemia)): 0.07 µg/mL (≈ 0.128 µM); IC50 [1]: < 0.001 µg/mL; cytotoxicity against murine P-388 cells (murine P-388 cells): 0.07 µg/mL; IC50 [2]: 0.1 µg/mL (≈ 0.182 µM); IC50 [3]: 0.03 µg/mL (≈ 0.0547 µM)
2.6 (≈ 8.43 µM)	3.7 (≈ 12 µM)	2.2 (≈ 7.13 µM)	2 (≈ 6.49 µM)	COc1ccc(OC)c(C2NCCc3c2[nH]c2ccccc32)c1 (stereo not drawn) [Compound 11, 1-(2′,5′-Dimethoxyphenyl)-1,2,3,4-tetrahydro-β-carboline]	
0.7 (≈ 2.21 µM)	0.3 (≈ 0.945 µM)	1.3 (≈ 4.1 µM)	1.8 (≈ 5.67 µM)	CCN(CC)c1ccc(C2=NCCc3c2[nH]c2ccccc32)cc1 [Compound 21, 1-(4′-Diethylaminophenyl)-3,4-dihydro-β-carboline]	
1 (≈ 3.06 µM)	2.1 (≈ 6.42 µM)	1.1 (≈ 3.36 µM)	3 (≈ 9.17 µM)	Brc1ccc(C2NCCc3c2[nH]c2ccccc32)cc1 (stereo not drawn) [Compound 5, 1-(4′-Bromophenyl)-1,2,3,4-tetrahydro-β-carboline]	
				O=[N+]([O-])c1cc(C2NCCc3c2[nH]c2ccccc32)cc2c1OCO2 (stereo not drawn) [Compound 14, 1-(3′-Nitroz4′-Benzo-1″,3″-dioxole)-1,2,3,4-tetrahydro-β-carboline]	IC50, concentration inhibiting 50% of the growth of P-388 (P-388 (murine leukemia); [4]): 0.3 µg/mL; IC50, concentration inhibiting 50% of the growth of KB-16 [1, 4]: 6.0 µg/mL; IC50, concentration inhibiting 50% of the growth of HT-29 [2, 5]: 1.4 µg/mL; IC50, concentration inhibiting 50% of the growth of A-549 [3, 5]: 1.7 µg/mL
1.2 (≈ 3.57 µM)	1.4 (≈ 4.16 µM)	0.7 (≈ 2.08 µM)	0.5 (≈ 1.49 µM)	COc1cc(C2=NCCc3c2[nH]c2ccccc32)cc(OC)c1OC [Compound 26, 1-(3′,4′,5′-Trimethoxyphenyl)-3,4-dihydro-β-carboline]	
1.2 (≈ 3.55 µM)	8.3 (≈ 24.5 µM)	1.6 (≈ 4.73 µM)	2 (≈ 5.91 µM)	COc1cc(C2NCCc3c2[nH]c2ccccc32)cc(OC)c1OC (stereo not drawn) [Compound 13, 1-(3′,4′,5′-Trimethoxyphenyl)-1,2,3,4-tetrahydro-β-carboline]	
0.4 (≈ 1.31 µM)	1 (≈ 3.26 µM)	0.6 (≈ 1.96 µM)	0.6 (≈ 1.96 µM)	COc1cc(OC)cc(C2=NCCc3c2[nH]c2ccccc32)c1 [Compound 25, 1-(3′,5′-Dimethoxyphenyl)-3,4-dihydro-β-carboline]	

Compound	IC50 (P-388 (murine leukemia); [4]) [µg/mL]	IC50 [1, 4] [µg/mL]	IC50 [2, 5] [µg/mL]	IC50 [3, 5] [µg/mL]	further results
COc1ccc(C2=NCCc3c2[nH]c2ccccc32)cc1OC [Compound 23, 1-(3′,4′-Dimethoxyphenyl)-3,4-dihydro-β-carboline]	2.7 (≈ 8.81 µM)	15 (≈ 49 µM)	2.7 (≈ 8.81 µM)	12 (≈ 39.2 µM)	
CN(C)c1ccc(C2=NCCc3c2[nH]c2ccccc32)cc1 [Compound 20, 1-(4′-Dimethylaminophenyl)-3,4-dihydro-β-carboline]	2.9 (≈ 10 µM)	4.8 (≈ 16.6 µM)	3 (≈ 10.4 µM)	50 (≈ 173 µM)	
O=[N+]([O-])c1ccc(C2NCCc3c2[nH]c2ccccc32)cc1 (stereo not drawn) [Compound 6, 1-(4′-Nitrophenyl)-1,2,3,4-tetrahydro-β-carboline]	0.8 (≈ 2.73 µM)	1.1 (≈ 3.75 µM)	1.5 (≈ 5.11 µM)	0.9 (≈ 3.07 µM)	
COc1ccc(C2=NCCc3c2[nH]c2ccccc32)c(OC)c1 [Compound 22, 1-(2′,4′-Dimethoxyphenyl)-3,4-dihydro-β-carboline]	0.6 (≈ 1.96 µM)	2.7 (≈ 8.81 µM)	0.5 (≈ 1.63 µM)	0.5 (≈ 1.63 µM)	
COc1ccc(OC)c(C2=NCCc3c2[nH]c2ccccc32)c1 [Compound 24, 1-(2′,5′-Dimethoxyphenyl)-3,4-dihydro-β-carboline]	1.1 (≈ 3.59 µM)	0.7 (≈ 2.28 µM)	0.4 (≈ 1.31 µM)	0.2 (≈ 0.653 µM)	
Clc1ccc(C2NCCc3c2[nH]c2ccccc32)cc1 (stereo not drawn) [Compound 4, 1-(4′-Chlorophenyl)-1,2,3,4-tetrahydro-β-carboline]	0.2 (≈ 0.707 µM)	0.7 (≈ 2.48 µM)	0.9 (≈ 3.18 µM)	0.6 (≈ 2.12 µM)	
